# Measurements as given in PMC9501810, “Bitter Peptides YFYPEL, [sequence], and [sequence], Released during Gastric Digestion of Casein, Stimulate Mechanisms of Gastric Acid Secretion via Bitter Taste Receptors TAS2R16 and TAS2R38” (Journal of Agricultural and Food Chemistry, 2022).
# Values joined by “and” are separate entries in the source; they are usually repeats but may differ in a detail not shown here. Equal values may be shown once.
# Assays:
# Type in all cases: cell-based, human
# [1] = test system: TAS2R4; assay: RT-qPCR gene expression of TAS2R4 in HGT-1 cells; details: VAPFPEVF 17.5 µM, YFYPEL 0.03 µM, YQEPVLGPVRGPFPIIV 0.4 µM, normalized to PPIA and GAPDH and untreated cells, mean, n = 3–5
# Procedure: (§1) For mRNA expression analysis, 800,000 cells were seeded in a T25 cell culture flask (25 cm^2) 1 day before the experiment. After incubation with 17.5 μM […], 0.03 μM YFYPEL, or 0.4 μM […] for 15, 30, 60, and 120 min, RNA was isolated using the peqGOLD RNA Kit (VWR Peqlab, USA) following the manufacturer’s protocol. Determination of RNA concentration (A260/A280 between 2.03 and 2.09) was performed on a NanoDrop One^c (Thermo Fisher Scientific Inc., USA). RNA integrity number (RIN 9.9–10.0, version 2.6, assay class Eukaryote Total RNA Nano) was analyzed using a 2100 Bioanalyzer (Agilent Technologies, USA). Removal of gDNA and synthesis of cDNA were performed using the iScript gDNA Clear cDNA Synthesis Kit (BioRad, Feldkirchen, Germany) following the manufacturer’s protocol. Real-time-qPCR (RT-qPCR) was performed with 50 ng cDNA amplified with SsoAdvanced Universal SYBR Green Supermix (Bio-Rad Laboratories, Inc., USA). The sequences of the forward and reverse primers of the 25 TAS2Rs were taken from Liszt et al.([13]) (Supporting Information Table-SI 3). Verified primers for the TAS1Rs (TAS1R1: qHsaCID0013443; TAS1R2: qHsaCID0016106; TAS1R3: qHsaCED0002321) and for MAPK1 (qHsaCEP0050000) were obtained from Bio-Rad Laboratories. PPIA[37] and GAPDH[38] were used as reference genes. The effects of the peptides on gene expression were analyzed in comparison to untreated control cells.
# [2] = test system: TAS2R5; assay: RT-qPCR gene expression of TAS2R5 in HGT-1 cells; details: VAPFPEVF 17.5 µM, YFYPEL 0.03 µM, YQEPVLGPVRGPFPIIV 0.4 µM, normalized to PPIA and GAPDH and untreated cells, mean, n = 3–5
# Procedure: as §1
# [3] = test system: TAS2R7; assay: RT-qPCR gene expression of TAS2R7 in HGT-1 cells; details: VAPFPEVF 17.5 µM, YFYPEL 0.03 µM, YQEPVLGPVRGPFPIIV 0.4 µM, normalized to PPIA and GAPDH and untreated cells, mean, n = 3–5
# Procedure: as §1
# [4] = test system: TAS2R10; assay: RT-qPCR gene expression of TAS2R10 in HGT-1 cells; details: VAPFPEVF 17.5 µM, YFYPEL 0.03 µM, YQEPVLGPVRGPFPIIV 0.4 µM, normalized to PPIA and GAPDH and untreated cells, mean, n = 3–5
# Procedure: as §1
# [5] = test system: TAS2R14; assay: RT-qPCR gene expression of TAS2R14 in HGT-1 cells; details: VAPFPEVF 17.5 µM, YFYPEL 0.03 µM, YQEPVLGPVRGPFPIIV 0.4 µM, normalized to PPIA and GAPDH and untreated cells, mean, n = 3–5
# Procedure: as §1
# [6] = test system: TAS2R16; assay: RT-qPCR gene expression of TAS2R16 in HGT-1 cells; details: VAPFPEVF 17.5 µM, YFYPEL 0.03 µM, YQEPVLGPVRGPFPIIV 0.4 µM, normalized to PPIA and GAPDH and untreated cells, mean, n = 3–5
# Procedure: as §1, with “cells. […]” for “cells.”
# [7] = test system: TAS2R20; assay: RT-qPCR gene expression of TAS2R20 in HGT-1 cells; details: VAPFPEVF 17.5 µM, YFYPEL 0.03 µM, YQEPVLGPVRGPFPIIV 0.4 µM, normalized to PPIA and GAPDH and untreated cells, mean, n = 3–5
# Procedure: as §1
# [8] = test system: TAS2R31; assay: RT-qPCR gene expression of TAS2R31 in HGT-1 cells; details: VAPFPEVF 17.5 µM, YFYPEL 0.03 µM, YQEPVLGPVRGPFPIIV 0.4 µM, normalized to PPIA and GAPDH and untreated cells, mean, n = 3–5
# Procedure: as §1
# [9] = test system: TAS2R39; assay: RT-qPCR gene expression of TAS2R39 in HGT-1 cells; details: VAPFPEVF 17.5 µM, YFYPEL 0.03 µM, YQEPVLGPVRGPFPIIV 0.4 µM, normalized to PPIA and GAPDH and untreated cells, mean, n = 3–5
# Procedure: as §1
# [10] = test system: TAS2R41; assay: RT-qPCR gene expression of TAS2R41 in HGT-1 cells; details: VAPFPEVF 17.5 µM, YFYPEL 0.03 µM, YQEPVLGPVRGPFPIIV 0.4 µM, normalized to PPIA and GAPDH and untreated cells, mean, n = 3–5
# Procedure: as §1
# [11] = test system: TAS2R42; assay: RT-qPCR gene expression of TAS2R42 in HGT-1 cells; details: VAPFPEVF 17.5 µM, YFYPEL 0.03 µM, YQEPVLGPVRGPFPIIV 0.4 µM, normalized to PPIA and GAPDH and untreated cells, mean, n = 3–5
# Procedure: as §1
# [12] = test system: TAS2R45; assay: RT-qPCR gene expression of TAS2R45 in HGT-1 cells; details: VAPFPEVF 17.5 µM, YFYPEL 0.03 µM, YQEPVLGPVRGPFPIIV 0.4 µM, normalized to PPIA and GAPDH and untreated cells, mean, n = 3–5
# Procedure: as §1
# [13] = test system: TAS2R46; assay: RT-qPCR gene expression of TAS2R46 in HGT-1 cells; details: VAPFPEVF 17.5 µM, YFYPEL 0.03 µM, YQEPVLGPVRGPFPIIV 0.4 µM, normalized to PPIA and GAPDH and untreated cells, mean, n = 3–5
# Procedure: as §1
# [14] = test system: TAS2R50; assay: RT-qPCR gene expression of TAS2R50 in HGT-1 cells; details: VAPFPEVF 17.5 µM, YFYPEL 0.03 µM, YQEPVLGPVRGPFPIIV 0.4 µM, normalized to PPIA and GAPDH and untreated cells, mean, n = 3–5
# Procedure: as §1
# [15] = test system: TAS1R1; assay: RT-qPCR gene expression of TAS1R1 in HGT-1 cells; details: 15/30/60/120 min, VAPFPEVF 17.5 µM, YQEPVLGPVRGPFPIIV 0.4 µM, n = 3
# Procedure: as §1
sequence,measurement,setting,value
VAPFPEVF [bitter casein peptide αS1-CN25–32],change in gene expression of TAS2R4,[1]; incubation 15 min,0.50 fold change
same,change in gene expression of TAS2R4,[1]; incubation 30 min,1.14 fold change
same,change in gene expression of TAS2R4,[1]; incubation 60 min,0.95 fold change
same,change in gene expression of TAS2R4,[1]; incubation 120 min,1.42 fold change
same,change in gene expression of TAS2R5,[2]; incubation 15 min,0.91 fold change
same,change in gene expression of TAS2R5,[2]; incubation 30 min,1.05 fold change
same,change in gene expression of TAS2R5,[2]; incubation 60 min,0.93 fold change
same,change in gene expression of TAS2R5,[2]; incubation 120 min,1.23 fold change
same,change in gene expression of TAS2R7,[3]; incubation 15 min,1.20 fold change
same,change in gene expression of TAS2R7,[3]; incubation 30 min,0.71 fold change
same,change in gene expression of TAS2R7,[3]; incubation 60 min,1.05 fold change
same,change in gene expression of TAS2R7,[3]; incubation 120 min,0.62 fold change
same,change in gene expression of TAS2R10,[4]; incubation 15 min,0.34 fold change and 0.34 ± 0.05 fold change
same,change in gene expression of TAS2R10,[4]; incubation 30 min,0.76 fold change
same,change in gene expression of TAS2R10,[4]; incubation 60 min,0.91 fold change
same,change in gene expression of TAS2R10,[4]; incubation 120 min,1.15 fold change
same,change in gene expression of TAS2R14,[5]; incubation 15 min,0.67 fold change
same,change in gene expression of TAS2R14,[5]; incubation 30 min,0.97 fold change
same,change in gene expression of TAS2R14,[5]; incubation 60 min,0.86 fold change
same,change in gene expression of TAS2R14,[5]; incubation 120 min,1.08 fold change
same,change in gene expression of TAS2R16,[6]; incubation 15 min,1.50 fold change
same,change in gene expression of TAS2R16,[6]; incubation 30 min,3.70 fold change and 3.70 ± 0.97 fold change
same,change in gene expression of TAS2R16,[6]; incubation 60 min,1.65 fold change
same,change in gene expression of TAS2R16,[6]; incubation 120 min,2.88 fold change
same,change in gene expression of TAS2R20,[7]; incubation 15 min,0.70 fold change
same,change in gene expression of TAS2R20,[7]; incubation 30 min,1.33 fold change
same,change in gene expression of TAS2R20,[7]; incubation 60 min,0.87 fold change
same,change in gene expression of TAS2R20,[7]; incubation 120 min,1.78 fold change
same,change in gene expression of TAS2R31,[8]; incubation 15 min,0.66 fold change
same,change in gene expression of TAS2R31,[8]; incubation 30 min,1.14 fold change
same,change in gene expression of TAS2R31,[8]; incubation 60 min,0.70 fold change
same,change in gene expression of TAS2R31,[8]; incubation 120 min,1.22 fold change
same,change in gene expression of TAS2R39,[9]; incubation 15 min,0.39 fold change
same,change in gene expression of TAS2R39,[9]; incubation 30 min,1.37 fold change
same,change in gene expression of TAS2R39,[9]; incubation 60 min,0.55 fold change
same,change in gene expression of TAS2R39,[9]; incubation 120 min,1.16 fold change
same,change in gene expression of TAS2R41,[10]; incubation 15 min,0.95 fold change
same,change in gene expression of TAS2R41,[10]; incubation 30 min,2.32 fold change
same,change in gene expression of TAS2R41,[10]; incubation 60 min,0.98 fold change
same,change in gene expression of TAS2R41,[10]; incubation 120 min,1.90 fold change
same,change in gene expression of TAS2R42,[11]; incubation 15 min,0.52 fold change
same,change in gene expression of TAS2R42,[11]; incubation 30 min,0.88 fold change
same,change in gene expression of TAS2R42,[11]; incubation 60 min,0.71 fold change
same,change in gene expression of TAS2R42,[11]; incubation 120 min,1.20 fold change
same,change in gene expression of TAS2R45,[12]; incubation 15 min,0.52 fold change
same,change in gene expression of TAS2R45,[12]; incubation 30 min,1.08 fold change
same,change in gene expression of TAS2R45,[12]; incubation 60 min,0.68 fold change
same,change in gene expression of TAS2R45,[12]; incubation 120 min,1.17 fold change
same,change in gene expression of TAS2R46,[13]; incubation 15 min,0.62 fold change
same,change in gene expression of TAS2R46,[13]; incubation 30 min,1.47 fold change
same,change in gene expression of TAS2R46,[13]; incubation 60 min,0.85 fold change
same,change in gene expression of TAS2R46,[13]; incubation 120 min,1.95 fold change
same,change in gene expression of TAS2R50,[14]; incubation 15 min,0.56 fold change
same,change in gene expression of TAS2R50,[14]; incubation 30 min,1.39 fold change
same,change in gene expression of TAS2R50,[14]; incubation 60 min,0.83 fold change
same,change in gene expression of TAS2R50,[14]; incubation 120 min,1.56 fold change
same,change in expression of TAS1R1,[15],no significant effect
